Test results taken from article PMC11472331 (Journal of Medicinal Chemistry, 2024).
Where two headings read alike, the source gives them in different places.

Key:
HDAC1 = HDAC1 (Homo sapiens, UniProt Q13547); assay: HDAC isoform inhibition assay (Reaction Biology); conditions: read-out: IC50 HDAC1; 10-dose IC50 mode, threefold serial dilution starting at 10 μM
LSD1 [1] = molecular target: T1, LSD1 (Homo sapiens, UniProt O60341); conditions: read-out: IC50 (μM, LSD1 inhibition); 10-dose IC50 mode, singlet, threefold serial dilution starting at 100 μM
LSD1 [2] = molecular target: T1, LSD1; assay: KDM1/LSD1 activity quantification/colorimetric assay; assay type: biochemical; conditions: 1 and 10 μM; compared with Corgline, selegiline, tranylcypromine, pargyline
Description: LSD1 inhibitory assay was also performed using the KDM1/LSD1 Activity Quantification/Colorimetric Assay Kit, as described earlier.[38]

HDAC6 = molecular target: T2, HDAC6 (Homo sapiens, UniProt Q9UBN7); assay: HDAC isoform inhibition assay (Reaction Biology)
T2 sequence (Q9UBN7 1-1215): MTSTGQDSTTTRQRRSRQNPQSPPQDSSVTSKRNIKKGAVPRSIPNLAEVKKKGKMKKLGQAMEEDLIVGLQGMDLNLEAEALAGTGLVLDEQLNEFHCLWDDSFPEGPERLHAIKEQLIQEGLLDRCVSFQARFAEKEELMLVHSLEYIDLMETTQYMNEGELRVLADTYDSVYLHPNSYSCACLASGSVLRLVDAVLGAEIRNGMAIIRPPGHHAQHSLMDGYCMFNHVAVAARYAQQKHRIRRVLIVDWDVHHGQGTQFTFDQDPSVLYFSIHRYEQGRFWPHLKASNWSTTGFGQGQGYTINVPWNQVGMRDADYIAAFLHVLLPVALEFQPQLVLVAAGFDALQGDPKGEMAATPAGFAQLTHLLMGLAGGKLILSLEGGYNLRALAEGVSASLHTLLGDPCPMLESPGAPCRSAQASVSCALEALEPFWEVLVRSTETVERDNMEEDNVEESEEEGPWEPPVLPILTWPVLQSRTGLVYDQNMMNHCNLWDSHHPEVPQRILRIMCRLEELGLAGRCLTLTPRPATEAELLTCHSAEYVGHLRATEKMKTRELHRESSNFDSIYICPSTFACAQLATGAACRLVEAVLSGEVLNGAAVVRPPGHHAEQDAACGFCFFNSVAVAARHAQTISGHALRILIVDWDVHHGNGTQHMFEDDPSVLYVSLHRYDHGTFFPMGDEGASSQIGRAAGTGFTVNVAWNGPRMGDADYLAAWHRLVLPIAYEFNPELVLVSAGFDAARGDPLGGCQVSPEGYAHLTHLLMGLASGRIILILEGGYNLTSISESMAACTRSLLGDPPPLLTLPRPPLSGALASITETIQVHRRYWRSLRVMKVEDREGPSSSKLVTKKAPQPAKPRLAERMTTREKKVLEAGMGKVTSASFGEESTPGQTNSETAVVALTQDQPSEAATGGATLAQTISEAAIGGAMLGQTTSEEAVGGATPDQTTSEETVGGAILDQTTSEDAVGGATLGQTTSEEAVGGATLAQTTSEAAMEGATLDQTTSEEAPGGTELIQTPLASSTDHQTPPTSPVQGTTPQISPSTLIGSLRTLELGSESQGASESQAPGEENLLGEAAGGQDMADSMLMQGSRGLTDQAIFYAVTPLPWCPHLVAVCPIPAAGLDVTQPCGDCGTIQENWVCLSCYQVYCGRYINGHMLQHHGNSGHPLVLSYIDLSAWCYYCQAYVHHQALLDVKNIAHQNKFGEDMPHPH

in vivo = conditions: male, Sprague-Dawley, rat, plasma, po, 20 mg/kg
HDAC2 = HDAC2 (Homo sapiens, UniProt Q92769); assay: HDAC isoform inhibition assay (Reaction Biology); conditions: read-out: IC50 HDAC2; 10-dose IC50 mode, threefold serial dilution starting at 10 μM
HDAC2, sequence (Q92769 whole entry, canonical isoform): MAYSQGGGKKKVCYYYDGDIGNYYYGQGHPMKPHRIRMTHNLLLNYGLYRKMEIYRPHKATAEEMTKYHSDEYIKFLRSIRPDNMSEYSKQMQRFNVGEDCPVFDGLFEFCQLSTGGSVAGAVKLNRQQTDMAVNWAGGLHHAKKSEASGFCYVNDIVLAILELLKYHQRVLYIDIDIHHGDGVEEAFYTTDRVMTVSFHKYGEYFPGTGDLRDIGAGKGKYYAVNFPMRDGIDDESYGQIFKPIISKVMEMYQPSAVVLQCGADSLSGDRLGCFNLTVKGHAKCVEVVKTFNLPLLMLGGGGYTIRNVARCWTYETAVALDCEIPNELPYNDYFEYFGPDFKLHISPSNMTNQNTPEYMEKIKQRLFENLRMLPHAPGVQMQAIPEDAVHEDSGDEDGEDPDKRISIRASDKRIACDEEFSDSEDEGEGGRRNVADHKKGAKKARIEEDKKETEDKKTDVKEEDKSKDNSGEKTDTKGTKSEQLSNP

HCT-116 = HCT-116 xenograft model; assay type: in vivo, Balb/c nude mice; conditions: 50 or 100 mg/kg ip qd, nude mice
HDAC8 = molecular target: T3, HDAC8 (Homo sapiens, UniProt Q9BY41); assay: HDAC isoform inhibition assay (Reaction Biology); conditions: read-out: IC50 HDAC8; 10-dose IC50 mode, threefold serial dilution starting at 10 μM
T3 sequence (Q9BY41 1-377): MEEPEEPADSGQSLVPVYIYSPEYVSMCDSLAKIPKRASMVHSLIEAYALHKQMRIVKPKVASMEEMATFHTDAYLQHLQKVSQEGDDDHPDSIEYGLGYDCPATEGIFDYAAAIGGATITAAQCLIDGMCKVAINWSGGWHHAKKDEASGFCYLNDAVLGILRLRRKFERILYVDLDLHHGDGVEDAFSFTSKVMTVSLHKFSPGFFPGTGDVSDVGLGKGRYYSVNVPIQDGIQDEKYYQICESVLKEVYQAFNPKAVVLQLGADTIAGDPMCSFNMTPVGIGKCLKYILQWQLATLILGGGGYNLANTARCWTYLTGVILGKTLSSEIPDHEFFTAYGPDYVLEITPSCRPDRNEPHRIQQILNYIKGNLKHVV

[3] = read-out: IC50 HDAC6, 10-dose IC50 mode, threefold serial dilution starting at 10 μM

HDAC1, sequence (Q13547 whole entry, canonical isoform): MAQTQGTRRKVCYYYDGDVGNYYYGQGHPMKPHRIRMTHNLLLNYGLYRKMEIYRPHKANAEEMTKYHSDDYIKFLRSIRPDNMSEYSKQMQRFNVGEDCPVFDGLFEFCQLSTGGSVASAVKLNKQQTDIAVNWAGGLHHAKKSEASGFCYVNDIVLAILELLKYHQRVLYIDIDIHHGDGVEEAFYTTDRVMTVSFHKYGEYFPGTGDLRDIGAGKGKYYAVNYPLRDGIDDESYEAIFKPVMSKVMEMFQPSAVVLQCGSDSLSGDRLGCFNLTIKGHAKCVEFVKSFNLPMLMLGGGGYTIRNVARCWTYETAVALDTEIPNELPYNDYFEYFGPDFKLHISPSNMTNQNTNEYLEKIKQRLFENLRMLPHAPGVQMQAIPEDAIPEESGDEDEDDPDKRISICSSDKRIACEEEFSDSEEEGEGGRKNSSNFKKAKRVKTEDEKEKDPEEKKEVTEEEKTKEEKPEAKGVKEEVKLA

SMILES	IC50 (LSD1 [1])	IC50 (HDAC6; [3])	IC50 (HDAC2)	IC50 (HDAC8)	IC50 (HDAC1)	further results
O=C(NO)c1ccc(CN[C@@H]2C[C@H]2c2ccccc2)cc1 [Compound 1, N-Hydroxy-4-((((1R,2S)-2-phenylcyclopropyl)amino)methyl)benzamide]	28 µM				8720 nM	
O=C(/C=C/c1cccc(S(=O)(=O)N[C@@H]2C[C@H]2c2ccccc2)c1)NO [Compound 2, (E)-N-Hydroxy-3-(3-(N-((1R,2S)-2-phenylcyclopropyl)sulfamoyl)phenyl)acrylamide]	0.571 µM	11.8 nM	373 nM		125 nM	inhibition of LSD1 activity versus standard LSD1 inhibitors (LSD1 [2]): more effective in inhibiting the activity of LSD1 than the standard LSD1 inhibitor; IC50 (HDAC6): 11 nM; Tmax (in vivo): 1.1 ± 0.9 h; toxicity based on body weight measurements (HCT-116): did not cause evident toxicity in animals
O=C(/C=C/c1ccc(S(=O)(=O)N[C@@H]2C[C@H]2c2ccccc2)cc1)NO [Compound 3, (E)-N-Hydroxy-3-(4-(N-((1R,2S)-2-phenylcyclopropyl)sulfamoyl)phenyl)acrylamide]	0.899 µM	9.66 nM	343 nM	753 nM	116 nM	IC50 (HDAC6): 9 nM
O=C(CCCCCCC(=O)Nc1ccc(CN[C@@H]2C[C@H]2c2ccccc2)cc1)NO [Compound 8]	1.61 µM	3730 nM				
O=C(NO)c1ccc(CN2CCC(CN[C@@H]3C[C@H]3c3ccccc3)CC2)cc1 [Compound 9, N-Hydroxy-4-((4-((((1R,2S)-2-phenylcyclopropyl)amino)methyl)piperidin-1-yl)methyl)benzamide]				1260 nM	12900 nM	
O=C(NO)c1ccc(CN2CCC(S(=O)(=O)N[C@@H]3C[C@H]3c3ccccc3)CC2)cc1 [Compound 10, N-Hydroxy-4-((4-(N-((1R,2S)-2-phenylcyclopropyl)sulfamoyl)piperidin-1-yl)methyl)benzamide]	2.4 µM	9.32 nM	8300 nM	407 nM	4120 nM	IC50 (HDAC6; read-out: HDAC6 IC50 as given in the text, rounded values of the running text): 9 nM

Now from value to molecule, other results behind:

IC50 (LSD1 [1])	IC50 (HDAC6; [3])	IC50 (HDAC2)	IC50 (HDAC8)	SMILES	IC50 (HDAC1)	further results
38.3 µM				O=C(CCCCCC(=O)N[C@@H]1C[C@H]1c1ccccc1)NO [Compound 4, N1-Hydroxy-N7-((1R,2S)-2-phenylcyclopropyl)heptanediamide]		
14.6 µM				O=C(CCCCCCC(=O)N[C@@H]1C[C@H]1c1ccccc1)NO [Compound 5, N1-Hydroxy-N8-((1R,2S)-2-phenylcyclopropyl)octanediamide]		
7.68 µM				O=C(CCCCCCCCC(=O)N[C@@H]1C[C@H]1c1ccccc1)NO [Compound 7, N1-Hydroxy-N10-((1R,2S)-2-phenylcyclopropyl)decanediamide]		
